The source of these data is PMC12123458, “Unraveling Small Molecule-Mediated Sirtuin 3 Activation at a Distinct Binding Site for Cardioprotective Therapies” (ACS Central Science, 2025).

Assay [1] has as its system H9c2 cells. The experiment in a line: Dox-induced cardiotoxicity model in H9c2 cells, MTT cell viability. The class given is cell-based. The following applies: for viability at 10 µM: Rattus norvegicus, H9c2, 10 µM pretreatment 24 h, then 1 µM Dox 24 h, MTT, Model (Dox) = Dox alone, read-out: Cardiomyocyte survival rate at 10 uM (%). The procedure: H9c2 cardiomyocytes were cultured in high-glucose DMEM supplemented with 10% FBS and 1% penicillin/streptomycin under a 5% CO2 atmosphere at 37 °C. Cells were seeded at 5 × 10^4 cells/mL in 96-well plates and treated with 1 μM Dox for 24 h. After Dox treatment, cell viability was quantified via MTT assay; 3-(4,5-dimethythiazol-2-yl)-2,5-diphenyltetrazolium bromide (MTT, 5 mg/mL) was applied for 4 h, followed by DMSO dissolution of formazan crystals. Additionally, cells were pretreated with 10 μM SKLB-11A for 24 h prior to 1 μM Dox exposure, and viability was similarly assessed using MTT.

For assay [2], the target named is T1, SIRT3 (Homo sapiens, UniProt Q9NTG7).
T1 construct: purchased Enzo Life Sciences BML-AK557-0001
T1 sequence (Q9NTG7 1-399): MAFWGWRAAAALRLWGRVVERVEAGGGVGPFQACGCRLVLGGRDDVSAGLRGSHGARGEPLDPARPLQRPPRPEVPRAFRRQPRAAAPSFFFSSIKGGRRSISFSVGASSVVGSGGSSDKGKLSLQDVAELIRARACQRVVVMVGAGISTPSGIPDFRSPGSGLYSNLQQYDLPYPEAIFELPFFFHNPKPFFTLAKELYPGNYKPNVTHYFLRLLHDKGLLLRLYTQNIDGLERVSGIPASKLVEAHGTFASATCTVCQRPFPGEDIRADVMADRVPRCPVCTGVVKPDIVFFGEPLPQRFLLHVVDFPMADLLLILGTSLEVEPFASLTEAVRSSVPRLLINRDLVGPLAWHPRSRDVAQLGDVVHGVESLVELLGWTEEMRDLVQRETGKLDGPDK
Description: Fluor de Lys (FDL) fluorimetric SIRT3 deacetylase activity assay. The class given is biochemical. Conditions: 100 µM, FDL deacetylation assay, compared to the control group, mean ± SD; for activity at 100 µM: 0.5 h, read-out: % effect @ 100 µM of SIRT3. The procedure:
The SIRT3 activity was assessed using the Enzo Life Sciences kit (BML-AK557-0001) per the protocol provided. A 10 μM fluoro-acetylated p53 peptide and 500 μM NAD^+ were added to SIRT3 assay buffer, incubated with test compounds and 0.5 μg recombinant SIRT3 at 37 °C for 30 min. In the mass spectrometry (MS) assay, 5 μM hSirt3 was reacted with 0.25 mM peptide and 1.25 mM NAD^+, with or without 10 μM SKLB-11A in 2% DMSO, at 37 °C. Controls included 2% DMSO without SKLB-11A. The reaction was halted at defined intervals using 5 mM nicotinamide, and the mixture then underwent filtration and subjected to nano LC-MS/MS analysis. Acetylated Peptide: MnSOD-K122 ([…]-Ac).

In the case of `COc1cccc2c1C(=O)c1c(O)c3c(c(O)c1C2=O)C[C@@](O)(C(=O)CO)C[C@@H]3O[C@H]1C[C@H](N)[C@H](O)[C@H](C)O1` [Dox, doxorubicin, reference compound], in assay [1], the viability at 10 µM was found to be 61.93 ± 0.51%.

As to `COc1cc(-n2c(=S)[nH]c3ccccc3c2=O)c(Cl)cc1Cl` [Mdivi-1, reference compound], in assay [1] (Dox-treated H9c2 cells, cell viability), the “effect of co-treatment on the cardioprotective efficacy of SKLB-11A” value is recorded as “attenuated the cardioprotective effects of SKLB-11A”.

Consider `COc1ccc(Cn2c(N)c(C#N)c3nc4ccccc4nc32)cc1` [SKLB-4A, 2-amino-1-(4-methoxybenzyl)-1H-pyrrolo[2,3-b]quinoxaline-3-carbonitrile], for which the activity at 100 µM in assay [2] was determined as 118.2 ± 0.79%. Besides, the viability at 10 µM in assay [1] was found to be 65.3 ± 4.54%.

For the molecule `N#Cc1c(N)n(Cc2ccc(F)cc2)c2nc3ccccc3nc12` [SKLB-4B, 2-amino-1-(4-fluorobenzyl)-1H-pyrrolo[2,3-b]quinoxaline-3-carbonitrile], in assay [2], the “% effect @ 100 µM of SIRT3” value was “significant increase in SIRT3 deacetylation activity” and the activity at 100 µM stood at 130.6 ± 0.36%. In assay [1], the viability at 10 µM was found to be 70.8 ± 3.03%.

With `N#Cc1c(N)n(Cc2ccc(Br)cc2)c2nc3ccccc3nc12` [SKLB-4C, 2-amino-1-(4-bromobenzyl)-1H-pyrrolo[2,3-b]quinoxaline-3-carbonitrile], the activity at 100 µM in assay [2] was found to be 126.4 ± 0.81%. Besides, the viability at 10 µM in assay [1] came out at 68.25 ± 0.51%.

For `COc1cccc(-n2c(N)c(C#N)c3nc4ccccc4nc32)c1` [SKLB-4D, 2-amino-1-(3-methoxyphenyl)-1H-pyrrolo[2,3-b]quinoxaline-3-carbonitrile], in assay [2], the activity at 100 µM is 103.1 ± 1.02%. Also, the viability at 10 µM in assay [1] came out at 64.4 ± 3.28%.

As for `COc1ccc(-n2c(N)c(C#N)c3nc4ccccc4nc32)cc1` [SKLB-4E, 2-amino-1-(4-methoxyphenyl)-1H-pyrrolo[2,3-b]quinoxaline-3-carbonitrile], the activity at 100 µM in assay [2] came out at 110.4 ± 0.95%. For the same molecule, the viability at 10 µM in assay [1] worked out at 65.9 ± 2.41%.

`N#Cc1c(N)n(-c2ccccc2F)c2nc3ccccc3nc12` [SKLB-4F, 2-amino-1-(2-fluorophenyl)-1H-pyrrolo[2,3-b]quinoxaline-3-carbonitrile]: the activity at 100 µM in assay [2] was 106 ± 1.96%. Besides, the viability at 10 µM in assay [1] came out at 65.17 ± 0.38%.

Turning to `Nc1c(C(=O)O)c2nc3ccccc3nc2n1Cc1ccc(F)cc1` [SKLB-5A, 2-amino-1-(4-fluorobenzyl)-1H-pyrrolo[2,3-b]quinoxaline-3-carboxylic acid], in assay [2], the activity at 100 µM is 154 ± 2.69%. For the same molecule, the viability at 10 µM in assay [1] came out at 75.5 ± 2.69%.

Regarding `CC(C)(C)OC(=O)Nc1c(C(=O)O)c2nc3ccccc3nc2n1Cc1ccc(F)cc1` [SKLB-7A, 2-((tert-butoxycarbonyl)amino)-1-(4-fluorobenzyl)-1H-pyrrolo[2,3-b]quinoxaline-3-carboxylic acid], in assay [2], the “% effect @ 100 µM of SIRT3” value is recorded as “significantly reduced SIRT3 deacetylation activity” and the activity at 100 µM came to 109.3 ± 0.71%. For the same molecule, in assay [1], the viability at 10 µM was 66.1 ± 0.8%.

On to `CCOC(=O)c1c(N)n(Cc2ccc(F)cc2)c2nc3ccccc3nc12` [SKLB-11B, Ethyl 2-amino-1-(4-fluorobenzyl)-1H-pyrrolo[2,3-b]quinoxaline-3-carboxylate], for which, in assay [2], the “% effect @ 100 µM of SIRT3” value is “maintained or enhanced the activity” and the activity at 100 µM turned out to be 167.4 ± 1.13%. Also, the viability at 10 µM in assay [1] amounted to 77 ± 1.96%.

In the case of `CC(C)OC(=O)c1c(N)n(Cc2ccc(F)cc2)c2nc3ccccc3nc12` [SKLB-11C, Isopropyl 2-amino-1-(4-fluorobenzyl)-1H-pyrrolo[2,3-b]quinoxaline-3-carboxylate], the activity at 100 µM in assay [2] is 124.2 ± 0.84%. Further, the viability at 10 µM in assay [1] came out at 70.2 ± 1.89%.

Regarding `CC(C)(C)OC(=O)c1c(N)n(Cc2ccc(F)cc2)c2nc3ccccc3nc12` [SKLB-11D, Tert-butyl 2-amino-1-(4-fluorobenzyl)-1H-pyrrolo[2,3-b]quinoxaline-3-carboxylate], in assay [2], the “% effect @ 100 µM of SIRT3” value is on record as “maintained or enhanced the activity” and the activity at 100 µM was 148 ± 3.07%. Further, the viability at 10 µM in assay [1] amounted to 74.3 ± 1.7%.
